# Measured values taken from patent US12428666B2, “Compositions and methods related to kethoxal derivatives” (The University of Chicago, priority 2018, dated 2025).
# “Also recorded” adds a separate entry of the source.
# Key:
# Pol II = assay: ssDNA-seq after Pol II inhibitor treatment; type: cell-based, human; conditions: for ssDNA peak number: 2 h, control more than 43,000; for distribution of ssDNA-seq peaks on gene coding regions: after inhibitor treatment vs control
# Description: N3-kethoxal enables genome-wide single-stranded DNA mapping (ssDNA-seq). Taking advantage of the sensitivity and the selectivity of N3-kethoxal towards single-stranded nucleic acids, the inventors first applied N3-kethoxal to map single-stranded regions of the genome, which has not been previously achieved. Human embryonic kidney (HEK) cells were cultured in N3-kethoxal-containing medium for 10 min to facilitate labelling before harvested. Genomic DNA was then purified and subjected to biotinylation reaction through “click” chemistry. Biotinylated DNA was purified and fragmented, followed by immunoprecipitation with streptavidin-coated beads. Enriched DNA and their corresponding inputs was used to make libraries, which were then sequenced and aligned.
# ssDNA is performed by: (1) Prepare labeling medium by adding 5 μL pure N3-kethoxal to 5 mL pre-warmed cell culture medium for each 10 cm dish. (2) Incubate cells in the labeling medium for 10 min at 37° C., 5% CO2. (3) For transcription inhibition experiments, cells were treated for 2 h under 100 μM DRB or 1 μM triptolide before incubated in N3-kethoxal-containing medium. (4) Harvest cells after the 10 min incubation, isolate total DNA from cells by PureLink genomic DNA mini kit according to the manufacturer's protocol. (5) Suspend 5 μg total DNA in 85 μL H2O, then add 10 μL 10×PBS and 5 μL 20 mM DBCO-PEG4-biotin (DMSO solution), incubate the mixture at 37° C. for 2 h. (6) Add 5 μL RNase A to the reaction mixture, incubate the mixture at 37° C. for another 15 min. (7) Recover DNA from the reaction mixture by DNA Clean & Concentrator kit according to the manufacturer's protocol.
# guanine = assay: Reaction of N3-kethoxal with RNA nucleic bases and RNA oligos (HPLC, MALDI-TOF); type: biochemical; conditions: 12 mer RNA oligo with 4 guanines
# Description: The reaction of N3-kethoxal and RNA was generally performed with the following protocol: 100 pmol RNA oligo and 1 μmol N3-kethoxal was incubated in total 10 μL solution in PBS buffer at 37° C. for 10 mins. […] The purified labelled RNA can be used for further studies such as mass spectrometry, gel electrophoresis and copper-free click reaction with biotin-DBCO.
# MALDI-TOF-MS analysis of N3-kethoxal labelled RNA oligo. […] Meanwhile the buffer exchange occurred from PBS buffer to tris buffer that can be directly used in MALDI-TOF-MS experiment without extra desalt step. One microliter of product solution was mixed with one microliter matrix which include 8:1 volume ratio of 2′4′6′-trihydroxyacetophenone (THAP, 10 mg/mL in 50% CH3CN/H2O):ammonium citrate (50 mg/mL in H2O). Then the mixture was spotted on the MALDI sample plate, dried and analyzed by Bruker Ultraflextreme MALDI-TOF-TOF Mass Spectrometers.
# The product of N3-kethoxal with for RNA nucleic bases was analyzed using LC-6AD (Shimadzu, Japan) HPLC instrument, which equipped with an Inertsil ODS-SP column ([…], 250×4.6 mm) (GL Science Inc. Japan). The phase A (100 mM TEAA buffer, pH=7.0) and phase B (CH3CN) were used as eluents with a flow rate of 1 mL/min at 35° C. (B conc.: 5-5-30%/0-5-30 min).
# [1] = tested on: mRNA secondary structures in live cells; assay: KARRI after translation inhibitor treatment; type: cell-based; conditions: 100 μg/mL cycloheximide or 3 μg/mL harringtonine, 37° C., 10 min
# Description: KARRI is performed by: (1) Suspend live cells in 1% formaldehyde solution at 1×10^6/mL and incubate at room temperature for 10 min with gentle rotate. Then quench this reaction by adding glycine to a final concentration of 125 mM and rotate the mixture at room temperature for 5 min. For translation inhibitor treatment, cells were treated with 100 μg/mL cycloheximide or 3 μg/mL harringtonine at 37° C. for 10 min. (2) Collect and take 2×10^6 cells. Dilute N3-Kethoxal by 1:5 using DMSO. Make a labeling buffer by adding 10 μL N3-Kethoxal into 290 μL lysis buffer (10 mM Tris-HCl pH 8.0, 10 mM NaCl, 0.2 IGEPAL CA630) with 3 μL 100× proteinase inhibitor cocktail. (3) Suspend cells in labeling buffer and rotate at room temperature for 30 min, then centrifuge at 2500 g for 5 min at 4° C. to collect cells. (4) Wash cell pellets with 500 μL ice-cold lysis buffer for 3 times. (5) Suspend the pellet in 500 μL MeOH containing 10 μM dendrimers, rotate for 1 h at 37° C. Then centrifuge at 2500 g for 5 min at 4° C. to collect cells. (6) Wash cell pellet twice with 500 μL ice-cold lysis buffer. (7) Resuspend cells in 385 μL lysis buffer, add 50 μL 10% SDS, 30 μL proteinase K, 10 μL RNase inhibitor, 25 μL 500 mM K3BO3, shake at 65° C. for 2 h. (8) Add 500 μL phenol-chloroform to extract RNA and purify RNA by EtOH precipitation. […]
SMILES,distribution of ssDNA-seq peaks on gene coding regions (Pol II),effect on in vivo RNA secondary structures (KARRI) [1],other results
"OC[C@H]1O[C@@H](n2cnc3cc(Cl)c(Cl)cc32)[C@H](O)[C@@H]1O [DRB, 5,6-dichloro-1-β-D-ribofuranosylbenzimidazole]",Stronger peaks were observed at TSS while peaks on gene body and TES were eliminated,,"ssDNA peak number (Pol II; 100 μM DRB): around 16,000"
"Cc1ncccc1C(=O)n1ccnc1 [NAI, reference compound]",,,labelling of RNA oligo (MALDI-TOF molecular weight of product) (guanine): some oligoes were only reacted by one NAI and some were labelled by two or three
"CC(C)[C@]12O[C@H]1[C@@H]1O[C@]13[C@]1(O[C@H]1C[C@H]1C4=C(CC[C@@]13C)C(=O)OC4)[C@@H]2O [Triptolide, triptolide]",most peaks on gene coding regions disappeared,,"ssDNA peak number (Pol II; 1 μM triptolide): ~3,700"
C[C@@H]1C[C@@H]([C@H](O)CC2CC(=O)NC(=O)C2)C(=O)[C@@H](C)C1 [cycloheximide],,undermined in vivo-specific structures and increased in vitro features,
COC(=O)C[C@](O)(CCC(C)(C)O)C(=O)O[C@@H]1C(OC)=C[C@]23CCCN2CCc2cc4c(cc2[C@H]13)OCO4 [harringtonine],,undermined in vivo-specific structures and increased in vitro features; also recorded: in vivo-specific structures were undermined while some in vitro-specific features showed up,
